Patent publication EP1090023B1 (GLAXO GROUP LIMITED, priority 1998, dated 1999)

What was measured:
Format in all cases: cell-based
adenosine 2a = adenosine 2a (Homo sapiens, UniProt P29274); test: Agonist activity against adenosine receptor subtypes, CHO cells with cAMP response element/SPAP reporter (basal cAMP); settings: ratio to EC50 of NECA; transfected CHO cells; effect on basal cAMP via SPAP
Description: (§1) Compounds of the invention were tested for in vitro and in vivo biological activity in accordance with the following screens: • (1) Agonist activity against adenosine 2a, adenosine 1 and adenosine 3 receptor subtypes.
(§2) Agonist selectivity of compounds against other human adenosine receptors was determined using Chinese hamster ovary (CHO) cells transfected with the gene for the relevant human adenosine receptor following a method based on that of Castanon and Spevak, 1994 . The CHO cells were also transfected with cyclic AMP response elements promoting the gene for secreted placental alkaline phosphatase (SPAP) (Wood, 1995). The effect of test compounds was determined by their effects on basal levels of cAMP (A2a) or on forskolin-enhanced cAMP (A1 and A3) as reflected by changes in levels of SPAP. EC50 values for compounds were then determined as a ratio to that of the non-selective agonist N-ethyl carboxamide adenosine (NECA).

adenosine 3 = target: T1, adenosine 3 (Homo sapiens, UniProt P0DMS8); test: Agonist activity against adenosine receptor subtypes, CHO cells with cAMP response element/SPAP reporter (forskolin-enhanced cAMP); settings: ratio to EC50 of NECA; transfected CHO cells; effect on forskolin-enhanced cAMP via SPAP
T1 sequence (P0DMS8 1-318): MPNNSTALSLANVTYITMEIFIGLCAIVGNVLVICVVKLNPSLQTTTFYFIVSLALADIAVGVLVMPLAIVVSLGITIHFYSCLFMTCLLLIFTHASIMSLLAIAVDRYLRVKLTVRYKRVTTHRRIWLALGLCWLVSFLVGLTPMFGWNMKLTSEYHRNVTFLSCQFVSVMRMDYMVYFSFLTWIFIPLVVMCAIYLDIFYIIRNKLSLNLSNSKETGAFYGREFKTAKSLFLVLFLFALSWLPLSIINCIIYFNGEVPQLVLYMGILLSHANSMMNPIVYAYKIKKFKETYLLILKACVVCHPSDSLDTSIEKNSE
Description: as §1, §2

adenosine 1 = target: T2, adenosine 1 (Homo sapiens, UniProt P30542); test: as above; settings: ratio to EC50 of NECA; transfected CHO cells; effect on forskolin-enhanced cAMP via SPAP
T2 sequence (P30542 1-326): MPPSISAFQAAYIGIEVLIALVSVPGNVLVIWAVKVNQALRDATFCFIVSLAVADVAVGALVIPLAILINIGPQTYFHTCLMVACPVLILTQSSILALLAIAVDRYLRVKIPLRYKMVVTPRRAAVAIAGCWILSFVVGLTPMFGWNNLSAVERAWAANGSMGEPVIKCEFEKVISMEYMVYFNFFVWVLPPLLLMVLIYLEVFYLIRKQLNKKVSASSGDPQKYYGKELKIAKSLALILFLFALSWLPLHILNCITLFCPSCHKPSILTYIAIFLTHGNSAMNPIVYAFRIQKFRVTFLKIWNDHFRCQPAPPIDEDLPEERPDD
Description: as §1, §2

Chain of adenosine 2a (P29274 whole entry): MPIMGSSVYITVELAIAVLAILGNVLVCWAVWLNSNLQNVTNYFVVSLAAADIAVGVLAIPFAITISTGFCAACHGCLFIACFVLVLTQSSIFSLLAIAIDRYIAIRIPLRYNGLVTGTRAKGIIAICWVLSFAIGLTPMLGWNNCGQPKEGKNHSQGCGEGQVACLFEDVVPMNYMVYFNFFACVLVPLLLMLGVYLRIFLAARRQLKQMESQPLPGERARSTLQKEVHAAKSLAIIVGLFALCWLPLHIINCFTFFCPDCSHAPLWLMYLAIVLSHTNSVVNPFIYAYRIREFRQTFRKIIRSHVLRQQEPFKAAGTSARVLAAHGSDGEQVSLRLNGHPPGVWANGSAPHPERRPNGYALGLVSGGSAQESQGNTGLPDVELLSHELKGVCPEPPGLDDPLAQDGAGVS

| A2a (EC50 values as a ratio of that of NECA) (adenosine 2a) | A3 (EC50 values as a ratio of that of NECA) (adenosine 3) | A1 (EC50 values as a ratio of that of NECA) (adenosine 1) | Compound |
| --- | --- | --- | --- |
| 30.7 | >284 | >2147 | CCc1nc([C@H]2O[C@@H](n3cnc4c(NCC(c5ccccc5)c5ccccc5)nc(NCCNC(=N)N)nc43)[C@H](O)[C@@H]2O)no1.O=CO.O=CO [Example 29, N-(2-{6-(2,2-Diphenyl-ethylamino)-9-[5R-(5-ethyl-[1,2,4]oxadiazol-3-yl)-3R,4S-dihydroxy-tetrahydro-furan-2R-yl]-9H-purin-2-ylamino}-ethyl)-guanidine diformate] |
| 13.27 | >206 | 2948.1 | CCn1cnc(C2OC(n3cnc4c(NCC(c5ccccc5)c5ccccc5)nc(NC5CCC(N)CC5)nc43)C(O)C2O)n1.O=CO.O=CO [Example 30, (2R,3R,4S,5R)-2-[2-(trans-4-Amino-cyclohexylamino)-6-(2,2-diphenyl-ethylamino)-purin-9-yl]-5-(1-ethyl-1H-[1,2,4]triazol-3-yl)-tetrahydro-furan-3,4-diol diformate] |
| 8.79 | >206 | 1753.5 | CCn1cnc([C@H]2O[C@@H](n3cnc4c(NCC(c5ccccc5)c5ccccc5)nc(NCCc5cn(C)cn5)nc43)[C@H](O)[C@@H]2O)n1.O=CO.O=CO [Example 31, (2R,3R,4S,5R)-2-{6-(2,2-Diphenyl-ethylamino)-2-[2-(1-methyl-1H-imidazol-4-yl)-ethylamino]-purin-9-yl}-5-(1-ethyl-1H-[1,2,4]triazol-3-yl)-tetrahydro-furan-3,4-diol diformate] |
| 11.85 | >206 | 1217.4 | CCn1cnc([C@H]2O[C@@H](n3cnc4c(NCC(c5ccccc5)c5ccccc5)nc(NCCN5CCCCC5)nc43)[C@H](O)[C@@H]2O)n1.O=CO.O=CO [Example 32, (2R,3R,4S,5R)-2-[6-(2,2-Diphenyl-ethylamino)-2-(2-piperidin-1-yl-ethylamino)-purin-9-yl]-5-(1-ethyl-1H-[1,2,4]triazol-3-yl)-tetrahydro-furan-3,4-diol diformate] |
| 34.25 | >206 | 4999.7 | CCn1cnc([C@H]2O[C@@H](n3cnc4c(NCC(c5ccccc5)c5ccccc5)nc(NCCc5ccccn5)nc43)[C@H](O)[C@@H]2O)n1.O=CO.O=CO [Example 33, (2R,3R,4S,5R)-2-[6-(2,2-Diphenyl-ethylamino)-2-(2-pyridin-2-yl-ethylamino)-purin-9-yl]-5-(1-ethyl-1H-[1,2,4]triazol-3-yl)-tetrahydro-furan-3,4-diol diformate] |
| 10.97 | >231 | 1980.8 | CCn1cnc(C2OC(n3cnc4c(NCC(c5ccccc5)c5ccccc5)nc(NC5CCNC5)nc43)C(O)C2O)n1.O=CO.O=CO [Example 34, (2R,3R,4S,5R)-2-[6-(2,2-Diphenyl-ethylamino)-2-(pyrrolidin-3R-ylamino)-purin-9-yl]-5-(1-ethyl-1H-[1,2,4]triazol-3-yl)-tetrahydro-furan-3,4-diol diformate] |
| 45.64 | >173 | 365.6 | CCC(CC)Nc1nc(NCCN2CCCCC2)nc2c1ncn2C1OC(c2nnc(C3CC3)o2)C(O)C1O.O=CO.O=CO (stereo not drawn) [Example 38] |
| 129.5 | >173 | >=1067 | CCC(CC)Nc1nc(NC2CCCC2)nc2c1ncn2[C@@H]1O[C@H](c2nnc(C3CC3)o2)[C@@H](O)[C@H]1O.O=CO.O=CO [Example 39, (2R,3R,4S,5S)-2-[2-Cyclopentylamino-6-(1-ethyl-propylamino)-purin-9-yl]-5-(5-cyclopropyl-[1,3,4]oxadiazol-2-yl)-tetrahydro-furan-3,4-diol diformate] |
| 74.29 | >249 | 1921.5 | CCC(CC)Nc1nc(NCCC2CCCCC2)nc2c1ncn2C1OC(c2nnc(C3CC3)o2)C(O)C1O.O=CO.O=CO [Example 41, (2R,3R,4S,5S)-2-[2-(2-Cyclohexyl-ethylamino)-6-(1-ethyl-propylamino)-purin-9-yl]-5-(5-cyclopropyl-[1,3,4]oxadiazol-2-yl)-tetrahydro-furan-3,4-diol diformate] |
| 41.04 | >87 | 306.9 | CCC(CC)Nc1nc(N[C@H](CO)C(C)C)nc2c1ncn2[C@@H]1O[C@H](c2nnc(C3CC3)o2)[C@@H](O)[C@H]1O.O=CO [Example 42, (2R,3R,4S,5S)-2-[6-(1-Ethyl-propylamino)-2-(1S-hydroxymethyl-2-methyl-propylamino)-purin-9-yl]-5-(5-cyclopropyl-[1,3,4]oxadiazol-2-yl)-tetrahydro-furan-3,4-diol formate] |
| 37.3 | >245 | 3371 | (2R,3R,4S,5S)-2-[6-(2,2-Diphenyl-ethylamino)-2-(2-piperidin-1-yl-ethylamino)-purin-9-yl]-5-[5-methyl-[1,3,4]thiadiazol-2-yl)-tetrahydro-furan-3,4-diol diformate [Example 28] |

| Compound | A2a (EC50 values as a ratio of that of NECA) (adenosine 2a) | A3 (EC50 values as a ratio of that of NECA) (adenosine 3) | A1 (EC50 values as a ratio of that of NECA) (adenosine 1) |
| --- | --- | --- | --- |
| CCC(CC)Nc1nc(NCCc2cn(C)cn2)nc2c1ncn2[C@@H]1O[C@H](c2nnc(C3CC3)o2)[C@@H](O)[C@H]1O.O=CO.O=CO [Example 37] | 6.39 | >173 | 581.9 |
| CCC(CC)Nc1nc(N[C@@H]2CCNC2)nc2c1ncn2[C@@H]1O[C@H](c2nnc(C3CC3)o2)[C@@H](O)[C@H]1O.O=CO.O=CO [Example 40, (2S,3S,4R,5R)-2-(5-Cyclopropyl-[1,3,4]oxadiazol-2-yl)-5-[6-(1-ethyl-propylamino)-2-(pyrrolidin-3R-ylamino)-purin-9-yl]-tetrahydro-furan-3,4-diol diformate] | 56.86 | >173 | 5084.2 |
| CCc1cc([C@H]2O[C@@H](n3cnc4c(NC(CC)CC)nc(NCCN5CCCCC5)nc43)[C@H](O)[C@@H]2O)no1.O=CO.O=CO [Example 43, (2R,3R,4S,5R)-2-[6-(1-Ethyl-propylamino)-2-(2-piperidin-1-yl-ethylamino)-purin-9-yl]-5-(5-ethylisoxazol-3-yl)tetrahydrofuran-3,4-diol diformate] | 3.25 | >1124 | 21.82 |
| (2R,3R,4S,5R)-2-[6-(2,2-Diphenyl-ethylamino)-2-(1R-hydroxy-2-phenyl-ethylamino)-purin-9-yl]-5-(1-ethyl-1H-[1,2,4]triazol-3-yl)-tetrahydro-furan-3,4-diol formate [Example 35] | 6.33 | >240 | 5261.1 |
